Measurements from US12448399B2, “Cereblon-based KRAS degrading PROTACs and uses related thereto” (Arvinas Operations, Inc., priority 2023, dated 2025).

Target: T1, KRas-G12D (Homo sapiens, UniProt P01116, G12D)
T1 construct: insert the HiBiT tag onto the N-terminus of one or more of the endogenous KRas alleles; host or cells: AsPC-1 HiBiT-KRasG12D knock-in clone (one tagged allele, two untagged KRasG12D alleles)
Assay: HiBiT Degradation Assay (G12D), AsPC-1 HiBiT-KRasG12D cells, 24 hr
Assay type: cell-based
Conditions: for Dmax: ASPC1, AsPC-1 cells, maximum degradation observed; for DC50: AsPC-1 cells
Experimental: AsPC-1 (CRL-1682) cells were purchased from ATCC and are homozygous for the G12D mutation in KRas. AsPC-1 cells were cultured in GIBCO RPMI-1640 (ThermoFisher Scientific, catalog #61870-036, with Glutamax, no HEPES, no Na Pyruvate) supplemented with 10% FBS (ThermoFisher Scientific, catalog #2060357) and 1× Penicillin-Streptomycin (ThermoFisher Scientific, catalog #15140122, 10000 U/ml, 100×). For degradation assays, 384 well plates were used. Alamar blue was purchased from ThermoFisher Scientific (A50101) and used according to manufacturer instructions. The Nano-Glo® HiBiT Lytic Detection System and Nano-Glo® HiBiT Blotting System were purchased from Promega (#N3050 and #N2410) and used according to manufacturer instructions.
To create the AsPC-1 HiBiT-KRasG12D cell line, CRISPR-Cas9 was used to insert the HiBiT tag onto the N-terminus of one or more of the endogenous KRas alleles. See Schwinn, M. K. et al. (2018) CRISPR-mediated tagging of endogenous proteins with a luminescent peptide, ACS Chem. Biol. 13(2), 467-474. After knock-in of the tag, individual clones were isolated by single cell dilution and screened for HiBiT insertion by PCR. A clone was identified that contained the desired HiBiT-KRasG12D sequence at one allele while the remaining two KRasG12D alleles were untagged. This clone was used in further studies.
AsPC-1 HiBiT-KRasG12D cells were plated at 9000 or 15,000 cells/well in a 384 well plate (Corning #3770). Compounds of the present disclosure and positive controls were diluted in the appropriate cell media and applied to the plated cells resulting in a final concentration titration of 10 μM to […] in 0.5% DMSO. Gambogic acid was used as a positive control for cytotoxicity and titrated from 10 μM to 78 nM. All assays were performed in triplicate. Cells were treated with compounds for 24 hr at 37° C. in an incubator containing 5% CO2. Following treatment, alamar blue was used to determine if any compounds led to a loss in cell viability after 24 hr. The 10× alamar blue reagent was added to a final concentration of 1× as recommended by the manufacturer and cells were returned to the incubator for 4 hr. Plates were then allowed to equilibrate to RT and fluorescence was measured using a Perkin-Elmer EnVision. After completion of the fluorescence read, the liquid from each well was removed and the cells were washed with PBS. The Nano-Glo® HiBiT detection reagent was prepared according to the manufacturer's instructions and added to each well after the PBS wash was removed. Following incubation at room temperature for 45 min, the luminescence was read using the ultra-sensitive luminescence aperture on the Envision instrument.
Fluorescence values from the alamar blue treatment were normalized to the DMSO-only control for each compound titration. HiBiT luminescence was normalized to the DMSO-only control and the fractional HiBiT signal was plotted versus the log of the PROTAC concentration and fit to a 4-parameter dose-response model to obtain the concentration of the compound that leads to half maximal degradation (DC50) as well as the maximum degradation observed (Dmax, conventionally expressed as a percentage of control).

T1 sequence (P01116 1-188 isoform P01116-2 G12D): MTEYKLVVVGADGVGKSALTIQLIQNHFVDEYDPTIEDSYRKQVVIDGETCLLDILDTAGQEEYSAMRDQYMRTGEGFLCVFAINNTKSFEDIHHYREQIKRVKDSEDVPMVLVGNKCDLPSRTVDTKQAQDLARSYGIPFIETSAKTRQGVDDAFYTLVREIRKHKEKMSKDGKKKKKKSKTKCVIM

SMILES	DC50	Dmax
C#Cc1c(F)ccc2cc(O)cc(-c3ncc4c(N5CC6CCC(C5)N6)nc(OC[C@]56CCCN5[C@H](CN5CCN(CC7CCN(c8ccc9c(c8)n(C(C)C)c(=O)n9C8CCC(=O)NC8=O)CC7)CC5)CC6)nc4c3F)c12 (stereo partly drawn) [Compound 208, 3-[5-[4-[[4-[[(3S,8R)-8-[[4-(3,8-diazabicyclo[3.2.1]octan-3-yl)-7-(8-ethynyl-7-fluoro-3-hydroxy-1-naphthyl)-8-fluoro-pyrido[4,3-d]pyrimidin-2-yl]oxymethyl]-1,2,3,5,6,7-hexahydropyrrolizin-3-yl]methyl]piperazin-1-yl]methyl]-1-piperidyl]-3-isopropyl-2-oxo-benzimidazol-1-yl]piperidine-2,6-dione]	< 5100 nM	> 70%
C#Cc1c(F)ccc2cc(O)cc(-c3ncc4c(N5CC6CCC(C5)N6)nc(OCCN5CCC6(CC5)CCN(CC5CCN(c7ccc8c(c7)C(=O)N(C7CCC(=O)NC7=O)C8=O)CC5)CC6)nc4c3F)c12 (stereo not drawn) [Compound 76]	< 5100 nM	> 70%
C#Cc1c(F)ccc2cc(O)cc(-c3ncc4c(N5CC6CCC(C5)N6)nc(OCCN5CCN(CC6CCN(CC7CCN(c8ccc9c(c8F)CN(C8CCC(=O)NC8=O)C9=O)CC7)CC6)CC5(C)C)nc4c3F)c12 (stereo not drawn) [Compound 174, 3-{5-[4-({4-[(4-{2-[(4-{3,8-diazabicyclo[3.2.1]octan-3-yl}-7-(8-ethynyl-7-fluoro-3-hydroxynaphthalen-1-yl)-8-fluoropyrido[4,3-d]pyrimidin-2-yl)oxy]ethyl}-3,3-dimethylpiperazin-1-yl)methyl]piperidin-1-yl}methyl)piperidin-1-yl]-4-fluoro-1-oxo-2,3-dihydro-1H-isoindol-2-yl}piperidine-2,6-dione]	< 5100 nM	> 70%
C#Cc1c(F)ccc2cc(O)cc(-c3ncc4c(N5CC6CCC(C5)N6)nc(OCCN5CCC6(CC5)CCN(CC5CCN(c7cc(C)c8c(c7F)CN(C7CCC(=O)NC7=O)C8=O)CC5)CC6)nc4c3F)c12 (stereo not drawn) [Compound 153, 3-(5-{4-[(9-{2-[(4-{3,8-diazabicyclo[3.2.1]octan-3-yl}-7-(8-ethynyl-7-fluoro-3-hydroxynaphthalen-1-yl)-8-fluoropyrido[4,3-d]pyrimidin-2-yl)oxy]ethyl}-3,9-diazaspiro[5.5]undecan-3-yl)methyl]piperidin-1-yl}-4-fluoro-7-methyl-1-oxo-2,3-dihydro-1H-isoindol-2-yl)piperidine-2,6-dione]	< 5100 nM	> 70%
C#Cc1c(F)ccc2cc(O)cc(-c3ncc4c(N5CC6CCC(C5)N6)nc(OCCN5CCC(CC6CCN(c7ccc8c(c7)n(C(C)C)c(=O)n8C7CCC(=O)NC7=O)CC6)CC5)nc4c3F)c12 (stereo not drawn) [Compound 175, 3-(5-{4-[(1-{2-[(4-{3,8-diazabicyclo[3.2.1]octan-3-yl}-7-(8-ethynyl-7-fluoro-3-hydroxynaphthalen-1-yl)-8-fluoropyrido[4,3-d]pyrimidin-2-yl)oxy]ethyl}piperidin-4-yl)methyl]piperidin-1-yl}-2-oxo-3-(propan-2-yl)-2,3-dihydro-1H-1,3-benzodiazol-1-yl)piperidine-2,6-dione]	< 5100 nM	> 70%
C#Cc1c(F)ccc2cc(O)cc(-c3ncc4c(N5CC6CCC(C5)N6)nc(OCCN5CCC6(CC5)CCN(CC5CCN(c7ccc8c(c7F)CN(C7CCC(=O)NC7=O)C8=O)CC5)CC6)nc4c3F)c12 (stereo not drawn) [Compound 121, 3-[5-[4-[[9-[2-[4-(3,8-diazabicyclo[3.2.1]octan-3-yl)-7-(8-ethynyl-7-fluoro-3-hydroxy-1-naphthyl)-8-fluoro-pyrido[4,3-d]pyrimidin-2-yl]oxyethyl]-3,9-diazaspiro[5.5]undecan-3-yl]methyl]-1-piperidyl]-4-fluoro-1-oxo-isoindolin-2-yl]piperidine-2,6-dione]	< 5100 nM	> 70%
C#Cc1c(F)ccc2cc(O)cc(-c3ncc4c(N5CC6CCC(C5)N6)nc(OCCN5CCC(CC6CCN(CC7CCN(c8ccc9c(c8)CN([C@H]8CCC(=O)NC8=O)C9=O)CC7)CC6)CC5)nc4c3F)c12 [Compound 215, (3S)-3-{5-[4-({4-[(1-{2-[(4-{3,8-diazabicyclo[3.2.1]octan-3-yl}-7-(8-ethynyl-7-fluoro-3-hydroxynaphthalen-1-yl)-8-fluoropyrido[4,3-d]pyrimidin-2-yl)oxy]ethyl}piperidin-4-yl)methyl]piperidin-1-yl}methyl)piperidin-1-yl]-1-oxo-2,3-dihydro-1H-isoindol-2-yl}piperidine-2,6-dione]	< 5100 nM	> 70%

More lines, main results first:

DC50	SMILES	Dmax
250 to 1000 nM	CCc1cccc2cc(O)cc(-c3ncc4c(N5CC6CCC(C5)N6)nc(OCCN5CCN([C@H]6CC[C@H](Nc7ccc8c(c7)C(=O)N(C7CCC(=O)NC7=O)C8=O)CC6)CC5)nc4c3F)c12 (stereo partly drawn) [Compound 33]	–
250 to 1000 nM	C#Cc1c(F)ccc2cc(O)cc(-c3ncc4c(N5CC6CCC(C5)N6)nc(OCCN5CCC6(CC5)CN(CC5CCN(c7cccc8c7CN(C7CCC(=O)NC7=O)C8=O)CC5)C6)nc4c3F)c12 (stereo not drawn) [Compound 135, 3-(4-{4-[(7-{2-[(4-{3,8-diazabicyclo[3.2.1]octan-3-yl}-7-(8-ethynyl-7-fluoro-3-hydroxynaphthalen-1-yl)-8-fluoropyrido[4,3-d]pyrimidin-2-yl)oxy]ethyl}-2,7-diazaspiro[3.5]nonan-2-yl)methyl]piperidin-1-yl}-1-oxo-2,3-dihydro-1H-isoindol-2-yl)piperidine-2,6-dione]	–
> 1000 nM	CCc1cccc2cc(O)cc(-c3ncc4c(N5CC6CCC(C5)N6)nc(OCCN5CCC(CC6CCN(c7ccc8c(c7)C(=O)N(C7CCC(=O)NC7=O)C8=O)CC6)CC5)nc4c3F)c12 (stereo not drawn) [Compound 67, 5-[4-[[1-[2-[4-(3,8-diazabicyclo[3.2.1]octan-3-yl)-7-(8-ethyl-3-hydroxy-1-naphthyl)-8-fluoro-pyrido[4,3-d]pyrimidin-2-yl]oxyethyl]-4-piperidyl]methyl]-1-piperidyl]-2-(2,6-dioxo-3-piperidyl)isoindoline-1,3-dione]	–
250 to 1000 nM	CCc1cccc2cc(O)cc(-c3ncc4c(N5CC6CCC(C5)N6)nc(OCCN5CCC(CN6CCC(Oc7ccc8c(c7)C(=O)N(C7CCC(=O)NC7=O)C8=O)CC6)CC5)nc4c3F)c12 (stereo not drawn) [Compound 8]	–
> 1000 nM	C#Cc1c(F)ccc2cccc(-c3ncc4c(N5CC6CCC(C5)N6)nc(OCCN5CCC6(CC5)CCN(CC5CCN(c7ccc8c(c7F)CN(C7CCC(=O)NC7=O)C8=O)CC5)CC6)nc4c3F)c12 (stereo not drawn) [Compound 156]	–
< 5100 nM	C#Cc1c(F)ccc2cc(O)cc(-c3ccc4c(N5CC6CCC(C5)N6)nc(OCCN5CCN(CC6CCN(CC7CCN(c8ccc9c(c8)n(C)c(=O)n9C8CCC(=O)NC8=O)CC7)CC6)CC5(C)C)nc4c3F)c12 (stereo not drawn) [Compound 227]	–
< 5100 nM	C#Cc1c(F)ccc2cc(O)cc(-c3ncc4c(N5CC6CCC(C5)N6)nc(OC[C@@H]5CC[C@@H](COC(=O)N6CCN(c7ccc8c(c7)CN(C7CCC(=O)NC7=O)C8=O)CC6)N5C)nc4c3F)c12 (stereo partly drawn) [Compound 114, [(2S,5S)-5-{[(4-{3,8-diazabicyclo[3.2.1]octan-3-yl}-7-(8-ethynyl-7-fluoro-3-hydroxynaphthalen-1-yl)-8-fluoropyrido[4,3-d]pyrimidin-2-yl)oxy]methyl}-1-methylpyrrolidin-2-yl]methyl 4-[2-(2,6-dioxopiperidin-3-yl)-1-oxo-2,3-dihydro-1H-isoindol-5-yl]piperazine-1-carboxylate]	–
250 to 1000 nM	CCc1cccc2cc(O)cc(-c3ncc4c(N5CC6CCC(C5)N6)nc(OCCN5CCC(CN6CCN(c7cccc8c7CN(C7CCC(=O)NC7=O)C8=O)CC6)CC5)nc4c3F)c12 (stereo not drawn) [Compound 9]	–
250 to 1000 nM	CCc1cccc2cc(O)cc(-c3ncc4c(N5CC6CCC(C5)N6)nc(OCCN5CCC(O[C@H]6CC[C@H](OC7CCN(c8cccc9c8CN(C8CCC(=O)NC8=O)C9=O)CC7)CC6)CC5)nc4c3F)c12 (stereo partly drawn) [Compound 23]	–
> 1000 nM	CCc1cccc2cc(O)cc(-c3ncc4c(N5CC6CCC(C5)N6)nc(OCCN5CCN(c6cc(N7CCN(c8ccc9c(c8)C(=O)N(C8CCC(=O)NC8=O)C9=O)CC7)ncn6)CC5)nc4c3F)c12 (stereo not drawn) [Compound 5]	–
